This is an account of results in patent publication US20220400686A1, “COMPOSITIONS AND METHODS FOR ON-DEMAND RELEASE OF ANTIMICROBIAL AGENTS” (priority 2019, published 2022).

The test system of one test is S. aureus. In words: Specific and nonspecific cleavage in human serum with/without MN, read out by S. aureus culture in the supernatant. Format: cell-based. The settings on record: PEGDMA-Oligo-Gentamicin hydrogel incubated 2 h in human serum with/without MN. Here is the method: The data also support faster oligo cleavage by MN than by other nucleases present in the human serum.
Briefly, the PEGDMA-Oligo-Gentamicin hydrogel (50 μL, 8 mm in diameter, n=3) was immersed in 0.25 mL of human serum with or without MN (0.1 U/mL) and incubated at 37° C. for 2 h. The hydrogel was then removed while 0.25 mL of LB media containing 250 CFU S. aureus was added. The culture of S. aureus was incubated for 24 h at 37° C. with shaking.

Test [1] has as its target T1, micrococcal nuclease (MN) (Staphylococcus aureus, UniProt P00644).
T1 construct: purchased Worthington Biochemical Corporation; host or cells: S. aureus strain ATCC #27735
In words: Enzymatic oligo digestion by micrococcal nuclease monitored by GPC. Format: biochemical, S. aureus. An excerpt: The cleavage of the oligo probe (synthesized and purified by Integrated DNA Technologies) by MN (source: S. aureus strain ATCC #27735; Worthington Biochemical Corporation) was first validated prior to its conjugation with vancomycin or PEGDMA hydrogel.
The digestion of the methacrylated oligo by micrococcal nuclease (MN, 0.1-1.0 U/μL) was monitored by aqueous gel permeation chromatography (GPC) on a Varian ProStar HPLC system with two PL Aquagel-OH columns (Agilent Technologies) and a UV detector. The eluent was aqueous PBS (10 mM, pH 7.4) and the flow rate was 1.0 mL/min. Detection of the oligo probe and its fragments upon digestion was enabled by UV absorbance at 260 nm. Extinction coefficient of 2′-O-methyl-modified nucleotides was assumed to be the same as that of RNA. All measurements were performed in triplicates.

With “/5Carboxyl/*mC*mG*TT*mC*mG*/3Acryd/ [6 PS]”, in the test on S. aureus, the “total CFU count of S. aureus after 24-h culture in supernatant” value (“total CFU count of S. aureus” below) is given as “increased accordingly”. Consider “/5Carboxyl/*mC*mGTTmC*mG*/3Acryd/ [4 PS]”, for which the “total CFU count of S. aureus” value in the test with S. aureus is recorded as “increased accordingly”. As for “/5Carboxyl/mCmGTTmCmG/3Acryd/ [0 PS oligo]”, the “cleavage of the oligo by MN (fragments by GPC, UV 260 nm)” value in test [1] (MN 0.1 U/μL, PBS pH 7.4 10 mM, physiological concentration of calcium ions) is given as “two fragments”. In addition, the “cleavage of the oligo by MN” value in test [1] (absence of calcium ions) is “very little cleavage”. Also, the “total CFU count of S. aureus” value in the test on S. aureus is recorded as “least or no CFU count”.
